Molecular target: dipeptidyl peptidase (DPP-IV) (Homo sapiens, UniProt P27487)
Experiment: DPP-IV inhibitory activity (statement only)
Format: biochemical
Details: metabolite of compound (A); statement without data

Chain of dipeptidyl peptidase (DPP-IV) (P27487 whole entry, species assumed): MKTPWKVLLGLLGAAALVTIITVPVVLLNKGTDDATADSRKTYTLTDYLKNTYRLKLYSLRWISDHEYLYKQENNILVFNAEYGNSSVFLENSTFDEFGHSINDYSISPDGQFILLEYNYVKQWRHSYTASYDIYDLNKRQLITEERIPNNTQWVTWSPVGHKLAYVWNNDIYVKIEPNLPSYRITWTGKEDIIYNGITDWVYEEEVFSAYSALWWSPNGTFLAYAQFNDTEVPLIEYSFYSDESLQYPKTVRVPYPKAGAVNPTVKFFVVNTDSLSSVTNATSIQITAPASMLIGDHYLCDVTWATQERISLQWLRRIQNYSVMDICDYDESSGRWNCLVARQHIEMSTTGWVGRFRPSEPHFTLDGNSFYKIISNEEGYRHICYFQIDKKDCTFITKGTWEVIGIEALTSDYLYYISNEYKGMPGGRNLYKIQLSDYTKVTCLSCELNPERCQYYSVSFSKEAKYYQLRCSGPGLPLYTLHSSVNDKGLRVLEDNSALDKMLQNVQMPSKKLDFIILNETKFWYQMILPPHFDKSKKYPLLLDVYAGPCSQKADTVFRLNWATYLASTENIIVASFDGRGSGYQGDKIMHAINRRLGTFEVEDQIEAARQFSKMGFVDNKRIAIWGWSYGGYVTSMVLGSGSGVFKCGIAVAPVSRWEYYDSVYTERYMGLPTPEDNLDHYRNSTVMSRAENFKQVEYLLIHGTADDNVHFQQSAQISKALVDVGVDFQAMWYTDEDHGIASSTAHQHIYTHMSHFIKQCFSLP

With `N#Cc1ccc(F)cc1Cn1c(N2CCC[C@@H](N)C2)cc(=O)[nH]c1=O` the DPP-IV inhibitory activity was “has a DPP-IV inhibitory activity”.

Reference: patent US20120129878A1, “TABLET” (Takeda Pharmaceutical Company Limited, priority 2009, published 2012)
